Laboratory results: US11634443B2, “Treprostinil prodrugs” (United Therapeutics Corporation, priority 2019, dated 2023)
Read-outs that look alike come from different tables or passages of the source.

Experiments:
[1] = Plasma stability and formation of treprostinil, human plasma; assay type: in vitro ADME; conditions: for Formation of Treprostinil, Concentration: prodrug dosed at 1 μM
Procedure: (§1) Studies were carried out in mixed-gender human plasma male Sprague-Dawley rat plasma, and male Beagle dog plasma. All plasma was obtained from Bioreclamation and collected on K2EDTA. Plasma was adjusted to pH 7.4 prior to initiating the experiments. DMSO stocks were first prepared for the test articles. […] The vials were kept in a benchtop Thermomixer® for the duration of the experiment. […] Samples were stored at 4° C. until the end of the experiment. After the final time point was sampled, the plate was mixed and then centrifuged at 3000 rpm for 10 minutes.

[2] = Plasma stability and formation of treprostinil, rat plasma; assay type: in vitro ADME; conditions: for Formation of Treprostinil, Concentration: prodrug dosed at 1 μM; for Half-Life / Percent Remaining: 1 μM, 37° C.
Procedure: as §1

[3] = Plasma stability and formation of treprostinil, dog plasma; assay type: in vitro ADME; conditions: for Formation of Treprostinil, Concentration: prodrug dosed at 1 μM; for Half-Life / Percent Remaining: 1 μM, 37° C.
Procedure: as §1

[4] = Stability and formation of treprostinil in human cryopreserved hepatocytes
Procedure: (§2) Mixed-gender human cryopreserved hepatocytes, male Sprague-Dawley rat cryopreserved hepatocytes, and male Beagle dog cryopreserved hepatocytes were purchased from XenoTech. The hepatocytes were thawed and prepared according to the vendor's instructions, pooled into Krebs Henseleit buffer (KHB, pH 7.4), and kept on ice prior to the experiments. […] The final DMSO content in the incubation mixture was ≤0.1%. […] Aliquots of the test article were withdrawn (n=1) at 0, 15, 30, 60, and 120 minutes. […] Aliquots of 7-HC were withdrawn (n=1) at 0 and 15 minutes. The reaction was immediately terminated by adding two volumes of ice-cold acetonitrile (ACN) to the test article samples and three volumes of ACN containing internal standard to the positive control samples.

[5] = Stability and formation of treprostinil in rat cryopreserved hepatocytes
Procedure: as §2

[6] = Stability and formation of treprostinil in dog cryopreserved hepatocytes
Procedure: as §2

[7] = Stability and formation of treprostinil in simulated intestinal fluid; assay type: in vitro ADME; conditions: for Half-Life: SIF pH 6.8, 1 μM, 37° C.; for Formation of Treprostinil, Concentration: SIF, prodrug dosed at 1 μM
Procedure: Studies were carried out in simulated intestinal fluid (SIF). SIF was prepared by dissolving 6.8 g of KH2PO4 in 250 mL of water, mixing, and then adding 77 mL of 0.2 N NaOH and 750 mL of water. Pancreatin (10 g) was added, mixed, and the pH was adjusted to pH 6.8 with 10 N NaOH. DMSO stocks were first prepared for the test articles. Aliquots of the DMSO solutions were dosed into 0.4 mL of matrix, which had been pre-warmed to 37° C., at a final test article concentration of 1 μM. The vials were kept in a benchtop Thermomixer® for the duration of the experiment. A separate tube was dosed for each time point in each matrix. At the appropriate times (0, 15, 30, 60, and 120 minutes), 0.8 mL of acetonitrile (ACN) containing 1% formic acid and internal standard was added directly to a single tube. Samples were mixed and then immediately stored at 4° C. until the end of the experiment. After the final time point was sampled, the plate was mixed and then centrifuged at 3000 rpm for 10 minutes. Aliquots of the supernatant were removed, diluted 1:1 into distilled water containing internal standard, and analyzed by LC-MS/MS against calibration standards prepared in a matched matrix. All samples were analyzed for the dosed prodrugs as well as the drug, treprostinil. The test article concentration was compared to the concentration at time 0 to determine the percent of test article remaining at each time point. Half-lives were calculated using GraphPad software, fitting to a single-phase exponential decay equation.

[8] = target: T1, prostaglandin I2 (PGI2) receptor (IP) (Homo sapiens, UniProt P43119); assay: IP receptor cAMP assay (agonist mode); assay type: cell-based; conditions: cAMP, cells overexpressing human IP
T1 construct: expressed in transfected cells; host or cells: CHO-K1

[9] = target: T2, prostaglandin E2 (PGE2) receptor 2 (EP2) (Homo sapiens, UniProt P43116); assay: EP2 receptor cAMP assay (agonist mode); assay type: cell-based; conditions: cAMP, cells overexpressing human EP2
T2 construct: expressed in transfected cells; host or cells: HEK293T
Procedure: Assay Buffer: • EP1 Calcium and DP1 cAMP Assays: HBSS plus 20 mM HEPES • EP2 and IP1 cAMP Assays: 1 mM IBMX in HBSS plus 20 mM HEPES
Cells were thawed from frozen cells and resuspended in assay buffer at desired concentrations. cAMP or Calcium assays were performed according to the manufacturer's protocol using Multiscreen™ TR-FRET cAMP 1.0 No Wash Assay Kit or Multiscreen™ Calcium 1.0 No Wash Kit.
Gas Cyclic AMP (cAMP) Assay: In agonist mode testing, cells were seeded in a 384-well plate at an appropriate density and then were treated with compounds and incubated at 37° C. for 20 minutes. The reaction was terminated by sequentially adding sequentially adding trFluor™ Eu-labeled cAMP and trFluor™ 650-labeled anti-cAMP antibody in lysis buffer. […] All testing wells contained 0.1% DMSO in the final concentrations.
Data in graphs are represented in Mean±SD. Dose-dependent responses were fitted with sigmoidal dose-response curves allowing variable slopes using GraphPad Prism version 6 (Graphpad Prism).
These studies used cell lines overexpressing either human IP, EP2 or DP1, or EP1 receptors, and following incubation with varying concentrations of compounds, cAMP levels were measured using Fluorescence Resonance Energy Transfer (FRET).

[10] = target: T3, prostaglandin D2 (PGD2) receptor 1 (DP1) (Homo sapiens, UniProt Q13258); assay: DP1 receptor cAMP assay (agonist mode); assay type: cell-based; conditions: cAMP, cells overexpressing human DP1
T3 construct: expressed in transfected cells; host or cells: HEK293T
T3 sequence (Q13258 1-359): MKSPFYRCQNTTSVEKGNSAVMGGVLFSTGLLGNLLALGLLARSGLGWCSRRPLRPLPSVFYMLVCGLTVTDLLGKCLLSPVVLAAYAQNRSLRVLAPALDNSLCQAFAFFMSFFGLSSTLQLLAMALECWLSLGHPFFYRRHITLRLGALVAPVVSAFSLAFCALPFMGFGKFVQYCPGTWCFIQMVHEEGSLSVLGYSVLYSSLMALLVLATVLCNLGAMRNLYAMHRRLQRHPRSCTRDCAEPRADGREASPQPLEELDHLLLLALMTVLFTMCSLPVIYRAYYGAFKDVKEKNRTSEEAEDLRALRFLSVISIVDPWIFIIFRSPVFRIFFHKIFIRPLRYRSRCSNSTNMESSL

[11] = Hydrolysis of treprostinil prodrugs to treprostinil at pH 6, 7 and 8 and 40 C; assay type: physicochemical
Excerpt: Tables 26, 27 and 28 present data for hydrolysis of selected treprostinil prodrugs at pH 6, 7 and 8, respectively, and 40 C.

[12] = microsomes
Procedure: (§3) Mixed-gender human liver microsomes, male Sprague-Dawley rat liver microsomes, and male Beagle dog liver microsomes were purchased from XenoTech. The reaction mixture, minus NADPH, was prepared as described below. […] An aliquot of the reaction mixture (without cofactor) was equilibrated in a shaking water bath at 37° C. for 5 minutes. The reaction was initiated by the addition of cofactor, and the mixture was incubated in a shaking water bath at 37° C. Aliquots (200 μL) were withdrawn at 0, 10, 20, 30, and 60 minutes. Test article samples were immediately combined with 400 μL of ice-cold acetonitrile (ACN) to terminate the reaction. […] The samples were then mixed and centrifuged to precipitate proteins. Aliquots of the supernatant were removed, diluted 1:1 into distilled water containing internal standard, and analyzed by LC-MS/MS against calibration standards prepared in a matched matrix. All samples were analyzed for the dosed prodrugs as well as the drug, treprostinil. The test article concentration was compared to the concentration at time 0 to determine the percent of test article remaining at each time point. Half-lives and clearance were calculated using GraphPad software, fitting to a single-phase exponential decay equation.
Liver Microsomes 0.5 mg/mL
Potassium Phosphate, pH 7.4 100 mM

[13] = microsomes; remark: listed apart in the source
Procedure: as §3
Liver Microsomes 0.5 mg/mL
Potassium Phosphate, pH 7.4 100 mM

T1 sequence (P43119 whole entry): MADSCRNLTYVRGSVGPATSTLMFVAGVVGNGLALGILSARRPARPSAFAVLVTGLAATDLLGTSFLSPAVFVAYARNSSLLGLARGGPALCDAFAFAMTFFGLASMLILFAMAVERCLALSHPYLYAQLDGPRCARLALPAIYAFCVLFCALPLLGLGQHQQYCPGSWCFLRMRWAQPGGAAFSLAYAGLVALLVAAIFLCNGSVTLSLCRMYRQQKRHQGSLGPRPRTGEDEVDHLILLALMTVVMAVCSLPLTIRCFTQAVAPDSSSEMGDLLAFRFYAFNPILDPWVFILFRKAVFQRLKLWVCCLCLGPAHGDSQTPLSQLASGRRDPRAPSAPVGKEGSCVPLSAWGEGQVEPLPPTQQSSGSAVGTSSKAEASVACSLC
T2 sequence (P43116 whole entry): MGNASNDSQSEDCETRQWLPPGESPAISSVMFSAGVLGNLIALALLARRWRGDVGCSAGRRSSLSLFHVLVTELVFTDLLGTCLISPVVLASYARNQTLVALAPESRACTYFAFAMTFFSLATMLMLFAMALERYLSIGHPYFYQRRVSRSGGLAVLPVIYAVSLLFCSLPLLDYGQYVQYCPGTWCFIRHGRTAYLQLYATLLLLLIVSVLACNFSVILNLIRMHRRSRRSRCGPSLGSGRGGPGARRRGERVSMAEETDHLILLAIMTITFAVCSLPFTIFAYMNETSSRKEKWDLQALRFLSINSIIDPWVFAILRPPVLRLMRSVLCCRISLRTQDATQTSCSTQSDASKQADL

With treprostinil diacetate [Prodrug LXXII] the “Formation of Treprostinil, Concentration” value ([1]; 0 min) was 0 µM, the Half-Life ([1]; 1 μM, 37° C.) was >2 h and the “Formation of Treprostinil, Concentration” value ([1]; 15 min) was 0 µM. For the same substance, the “Formation of Treprostinil, Concentration” value ([1]; 30 min) was 0 µM, the “Percent Remaining” value ([1]; 120 min, 1 μM, 37° C.) was 86.5% and the “Formation of Treprostinil, Concentration” value ([1]; 120 min) was 0 µM. The “Formation of Treprostinil, Concentration” value [1] was 0 µM, the “Formation of Treprostinil, Concentration” value ([2]; 0 min) was 0 µM and the Half-Life [2] was >2 h. For the same substance, the “Formation of Treprostinil, Concentration” value ([2]; 60 mm) was 0.00595 µM, the “Formation of Treprostinil, Concentration” value ([2]; 15 min) was 0 µM and the “Formation of Treprostinil, Concentration” value ([2]; 30 min) was 0 µM. For the same substance, the “Percent Remaining” value ([2]; 60 min) was 83.6%, the “Percent Remaining” value ([2]; 120 min) was 79.7% and the “Formation of Treprostinil, Concentration” value ([2]; 120 min) was 0.0151 µM. The “Formation of Treprostinil, Concentration” value ([3]; 0 min) was 0 µM, the Half-Life [3] was >2 h and the “Percent Remaining” value ([3]; 15 min) was 96.7%. The “Formation of Treprostinil, Concentration” value ([3]; 15 min) was 0 µM, the “Formation of Treprostinil, Concentration” value ([3]; 30 min) was 0 µM and the “Percent Remaining” value ([3]; 120 min) was 82.9%. For the same substance, the “Formation of Treprostinil, Concentration” value ([3]; 120 min) was 0 µM, the “Formation of Treprostinil, Concentration” value [3] was 0 µM and the “Treprostinil Concentration, 0 min” value [4] was 0.00458 µM. For the same substance, the “Treprostinil Concentration, 15 min” value [4] was 0.562 µM, the “Treprostinil Concentration, 30 min” value [4] was 0.491 µM and the “Treprostinil Concentration, 60 min” value [4] was 0.433 µM. For the same substance, the “Treprostinil Concentration, 120 min” value [4] was 0.364 µM, the “Treprostinil Concentration, 0 min” value [5] was 0 µM and the “Treprostinil Concentration, 15 min” value [5] was 0.24 µM. For the same substance, the “Treprostinil Concentration, 30 min” value [5] was 0.301 µM, the “Treprostinil Concentration, 60 min” value [5] was 0.298 µM and the “Treprostinil Concentration, 120 min” value [5] was 0.274 µM. For the same substance, the “Treprostinil Concentration, 0 min” value [6] was 0.0636 µM, the “Treprostinil Concentration, 15 min” value [6] was 0.671 µM and the “Treprostinil Concentration, 30 min” value [6] was 0.541 µM. The “Treprostinil Concentration, 60 min” value [6] was 0.465 µM, the “Treprostinil Concentration, 120 min” value [6] was 0.401 µM and the CLint ([6]; hepatocytes) was >0.0308 mL/min/mg protein. For the same substance, the Half-Life ([6]; hepatocytes) was <0.25 h, the Half-Life [7] was >2 h and the “Formation of Treprostinil, Concentration” value ([7]; 0 min) was 0 µM. The “Formation of Treprostinil, Concentration” value ([7]; 15 min) was 0 µM, the “Formation of Treprostinil, Concentration” value ([7]; 30 min) was 0 µM and the “Formation of Treprostinil, Concentration” value ([7]; 60 min) was 0 µM. For the same substance, the “Formation of Treprostinil, Concentration” value ([7]; 120 min) was 0.0126 µM, the “Activity at the IP receptor compared to treprostinil” value [8] was “inactive” and the “Activity at the EP2 receptor compared to treprostinil” value [9] was “non-traditional dose response curve”. For the same substance, the “Activity at the DP1 receptor compared to treprostinil” value [10] was “several hundred-fold less active”, the “Hydrolysis of prodrug to treprostinil, % Area, t = 1 week” value (shortened to “Hydrolysis … % Area, t = 1 week”) ([11]; pH 6, 40 C) was 0.00 % Area and the “Hydrolysis of prodrug to treprostinil, % Area, t = 2 weeks” value (“Hydrolysis … % Area, t = 2 weeks” below) ([11]; pH 6, 40 C) was 0.00 % Area. For the same substance, the “Hydrolysis of prodrug to treprostinil, % Area, t = 3 weeks” value (shortened to “Hydrolysis … % Area, t = 3 weeks”) ([11]; pH 6, 40 C) was 0.00 % Area, the “Hydrolysis … % Area, t = 1 week” value ([11]; pH 7, 40 C) was 0.00 % Area and the “Hydrolysis … % Area, t = 2 weeks” value ([11]; pH 7, 40 C) was 0.00 % Area. The “Hydrolysis … % Area, t = 3 weeks” value ([11]; pH 7, 40 C) was 0.00 % Area, the “Hydrolysis … % Area, t = 1 week” value ([11]; pH 8, 40 C) was 0.00 % Area and the “Hydrolysis … % Area, t = 2 weeks” value ([11]; pH 8, 40 C) was 0.00 % Area. For the same substance, the “Hydrolysis … % Area, t = 3 weeks” value ([11]; pH 8, 40 C) was 0.00 % Area, the Half-Life [12] was <0.167 h and the Half-Life [13] was <0.167 h.
In the case of treprostinil dicarbonate [Prodrug LXXI], the Half-Life ([1]; 1 μM, 37° C.) is reported as >2 h, the Half-Life [2] is reported as <0.25 h and the Half-Life [3] is reported as >2 h. The “Treprostinil Concentration, 0 min” value [4] was 0 µM, the “Treprostinil Concentration, 15 min” value [4] was 0.118 µM and the “Treprostinil Concentration, 30 min” value [4] was 0.211 µM. For the same substance, the “Treprostinil Concentration, 60 min” value [4] was 0.273 µM, the “Treprostinil Concentration, 120 min” value [4] was 0.259 µM and the “Treprostinil Concentration, 0 min” value [5] was 0 µM. For the same substance, the “Treprostinil Concentration, 15 min” value [5] was 0.422 µM, the “Treprostinil Concentration, 30 min” value [5] was 0.403 µM and the “Treprostinil Concentration, 60 min” value [5] was 0.347 µM. For the same substance, the “Treprostinil Concentration, 120 min” value [5] was 0.292 µM, the “Treprostinil Concentration, 0 min” value [6] was 0.00293 µM and the “Treprostinil Concentration, 15 min” value [6] was 0.501 µM. The “Treprostinil Concentration, 30 min” value [6] was 0.408 µM, the “Treprostinil Concentration, 60 min” value [6] was 0.348 µM and the “Treprostinil Concentration, 120 min” value [6] was 0.303 µM. For the same substance, the Half-Life [7] was >2 h, the “Formation of Treprostinil, Concentration” value ([7]; 0 min) was 0 µM and the “Formation of Treprostinil, Concentration” value ([7]; 15 min) was 0 µM. The “Formation of Treprostinil, Concentration” value ([7]; 30 min) was 0 µM, the “Formation of Treprostinil, Concentration” value ([7]; 60 min) was 0 µM and the “Formation of Treprostinil, Concentration” value ([7]; 120 min) was 0.0121 µM. For the same substance, the “Activity at the IP receptor compared to treprostinil” value [8] was “inactive”, the “Activity at the EP2 receptor compared to treprostinil” value [9] was “inactive” and the “Hydrolysis … % Area, t = 1 week” value ([11]; pH 6, 40 C) was 0.00 % Area. For the same substance, the “Hydrolysis … % Area, t = 2 weeks” value ([11]; pH 6, 40 C) was 0.00 % Area, the “Hydrolysis … % Area, t = 3 weeks” value ([11]; pH 6, 40 C) was 0.00 % Area and the “Hydrolysis … % Area, t = 1 week” value ([11]; pH 7, 40 C) was 0.00 % Area. The “Hydrolysis … % Area, t = 2 weeks” value ([11]; pH 7, 40 C) was 0.00 % Area, the “Hydrolysis … % Area, t = 3 weeks” value ([11]; pH 7, 40 C) was 0.00 % Area and the “Hydrolysis … % Area, t = 1 week” value ([11]; pH 8, 40 C) was 0.00 % Area. The “Hydrolysis … % Area, t = 2 weeks” value ([11]; pH 8, 40 C) was 0.00 % Area and the “Hydrolysis … % Area, t = 3 weeks” value ([11]; pH 8, 40 C) was 0.38 % Area.
